Drawing on ChEMBL document CHEMBL5725873, “Heteroaryl compounds and their use as therapeutic drugs” (2018), this text covers IC50 for 2 compounds.

The test deals with T1, Tyrosine-protein kinase Mer (Homo sapiens, UniProt Q12866).
T1 sequence (Q12866 whole entry): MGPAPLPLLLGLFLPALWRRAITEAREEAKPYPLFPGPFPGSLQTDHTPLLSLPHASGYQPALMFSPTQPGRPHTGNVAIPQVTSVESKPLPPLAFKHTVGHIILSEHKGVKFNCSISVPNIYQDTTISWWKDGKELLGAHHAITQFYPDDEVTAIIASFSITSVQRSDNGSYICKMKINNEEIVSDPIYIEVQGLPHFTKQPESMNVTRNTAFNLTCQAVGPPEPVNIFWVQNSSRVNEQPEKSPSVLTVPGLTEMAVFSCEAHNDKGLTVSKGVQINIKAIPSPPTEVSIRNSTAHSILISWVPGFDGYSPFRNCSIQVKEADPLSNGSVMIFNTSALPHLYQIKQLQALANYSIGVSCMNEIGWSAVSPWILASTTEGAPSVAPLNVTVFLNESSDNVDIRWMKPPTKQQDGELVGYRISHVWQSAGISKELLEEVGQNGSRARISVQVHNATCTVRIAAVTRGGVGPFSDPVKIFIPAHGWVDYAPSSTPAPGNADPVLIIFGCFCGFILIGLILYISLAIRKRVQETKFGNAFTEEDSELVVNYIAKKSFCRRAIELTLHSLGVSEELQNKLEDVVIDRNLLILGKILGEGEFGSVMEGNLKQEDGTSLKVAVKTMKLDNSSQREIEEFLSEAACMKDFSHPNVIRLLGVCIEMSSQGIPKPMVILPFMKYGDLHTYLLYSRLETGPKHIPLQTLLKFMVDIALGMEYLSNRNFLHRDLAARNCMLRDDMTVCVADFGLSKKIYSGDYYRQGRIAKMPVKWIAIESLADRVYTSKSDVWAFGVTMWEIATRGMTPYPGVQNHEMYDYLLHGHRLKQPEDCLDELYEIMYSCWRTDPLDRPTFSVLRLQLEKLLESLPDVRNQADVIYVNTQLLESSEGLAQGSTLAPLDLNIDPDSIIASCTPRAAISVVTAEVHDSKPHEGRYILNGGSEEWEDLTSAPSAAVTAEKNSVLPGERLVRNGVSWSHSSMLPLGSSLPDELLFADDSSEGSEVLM
The test is described as follows: TBD: TBD.

Molecules are shown by their SMILES.

For the compound `CN1CCN(Cc2ccc(-c3ccc(CO[C@H]4CCC[C@@H]4NC(=O)c4cc(-c5ccc(Cl)c(F)c5)cnc4N)cc3)cc2)CC1`, the 50% inhibitory concentration (IC50) is under 10 nM.

In turn, `C[C@@H](CNC(=O)c1cc(-c2cnn(C)c2)cnc1N)OCc1ccc(Cl)c(Cl)c1` registered an IC50 of over 1000 nM.

The term IC50 denotes the concentration that inhibits the measured activity by half. High values mean a need for much substance, low ones inhibition by little substance.
